Measured values as given in patent publication US20230192705A1, “SHP2 INHIBITORS, COMPOSITIONS AND USES THEREOF” (Betta Pharmaceuticals Co., Ltd, priority 2020, published 2023).

Molecular target: T1, SHP2 (Homo sapiens, UniProt Q06124)
T1 sequence (Q06124 1-593): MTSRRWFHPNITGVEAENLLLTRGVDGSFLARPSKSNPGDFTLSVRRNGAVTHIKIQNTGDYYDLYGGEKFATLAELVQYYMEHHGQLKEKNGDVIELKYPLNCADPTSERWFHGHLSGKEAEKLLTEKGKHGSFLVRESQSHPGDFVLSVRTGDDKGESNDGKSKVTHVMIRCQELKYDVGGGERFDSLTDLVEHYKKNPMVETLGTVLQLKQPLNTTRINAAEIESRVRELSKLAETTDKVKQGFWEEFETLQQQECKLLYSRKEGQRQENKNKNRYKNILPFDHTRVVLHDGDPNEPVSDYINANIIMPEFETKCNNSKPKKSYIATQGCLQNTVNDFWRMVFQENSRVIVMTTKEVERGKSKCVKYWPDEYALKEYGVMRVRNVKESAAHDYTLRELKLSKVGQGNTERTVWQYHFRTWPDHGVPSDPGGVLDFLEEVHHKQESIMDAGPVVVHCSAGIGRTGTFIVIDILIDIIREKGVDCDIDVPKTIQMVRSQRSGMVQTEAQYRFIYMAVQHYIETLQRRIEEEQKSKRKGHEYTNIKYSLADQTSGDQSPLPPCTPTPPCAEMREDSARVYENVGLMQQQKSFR
Experiment: SHP2 allosteric inhibitor enzyme activity assay (DiFMUP fluorescence)
Assay type: biochemical
Conditions: class symbols
Method in brief: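 SHP2 activated by 0.5 μM IRS1_pY1172(dPEG8)pY1222 peptide, 0.2 ng enzyme per well, 1 h at room temperature with compound (1 μM top, 3-fold series), then DiFMUP substrate 1 h. Buffer: 60 mM HEPES, 75 mM NaCl, 75 mM KCl, 0.05% BRIJ-35, 1 mM EDTA, 5 mM DTT. Fluorescence ex 340/em 450 nm; IC50 by variable-slope fit.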

Structure (SMILES)	IC50 [µM]
C[C@@H]1OCC2(CCN(c3nc4[nH]nc(C5(c6cccc(Br)c6)CC5)c4c(=O)[nH]3)CC2)[C@@H]1N [Example 317, 6-((3S,4S)-4-amino-3-methyl-2-oxa-8-azaspiro[4.5]decan-8-yl)-3-(1-(3-bromophenyl)cyclopropyl)-1,5-dihydro-4H-pyrazolo[3,4-d]pyrimidin-4-one]	0.02 to 0.06
Cc1cc(C(F)F)c2c(n1)CCC=C2c1n[nH]c2nc(N3CCC4(CC3)Cc3ccccc3[C@H]4N)[nH]c(=O)c12 [Example 142, (S)-6-(1-amino-1,3-dihydrospiro[indene-2,4′-piperidin]-1′-yl)-3-(4-(difluoromethyl)-2-methyl-7,8-dihydroquinolin-5-yl)-1,5-dihydro-4H-pyrazolo[3,4-d]pyrimidin-4-one]	0.02 to 0.06
C[C@@H]1OCC2(CCN(c3ncc(C4(c5ccccc5)CC4)c(=O)n3C)CC2)[C@@H]1N [Example 263, 2-((3S,4S)-4-amino-3-methyl-2-oxa-8-azaspiro[4.5]decan-8-yl)-3-methyl-5-(1-phenylcyclopropyl)pyrimidin-4(3H)-one]	> 0.06
Cc1csc(C2(c3n[nH]c4nc(N5CCC6(CC5)CO[C@@H](C)[C@H]6N)[nH]c(=O)c34)CC2)n1 [Example 318, 6-((3S,4S)-4-amino-3-methyl-2-oxa-8-azaspiro[4.5]decan-8-yl)-3-(1-(4-methylthiazol-2-yl)cyclopropyl)-1,5-dihydro-4H-pyrazolo[3,4-d]pyrimidin-4-one]	0.02 to 0.06
CC1(C)C=C(c2n[nH]c3nc(N4CCC5(CC4)Cc4ccccc4[C@H]5N)[nH]c(=O)c23)c2cnn(C3CC3)c2C1 [Example 152, (S)-6-(1-amino-1,3-dihydrospiro[indene-2,4′-piperidin]-1′-yl)-3-(1-cyclopropyl-6,6-dimethyl-6,7-dihydro-1H-indazol-4-yl)-1,5-dihydro-4H-pyrazolo[3,4-d]pyrimidin-4-one]	0.02 to 0.06
CC1(C)C=C(c2n[nH]c3nc(N4CCC5(CC4)Cc4ccccc4C5N)[nH]c(=O)c23)c2sc(N)nc2C1 (stereo not drawn) [Example 130, 6-(1-amino-1,3-dihydrospiro[indene-2,4′-piperidin]-1′-yl)-3-(2-amino-5,5-dimethyl-4,5-dihydrobenzo[d]thiazol-7-yl)-1,5-dihydro-4H-pyrazolo[3,4-d]pyrimidin-4-one]	0.02 to 0.06
N[C@@H]1c2ccccc2CC12CCN(c1nc3[nH]nc(C4(c5ccccc5)CC4(Cl)Cl)c3c(=O)[nH]1)CC2 (stereo partly drawn) [Example 7, 6-((S)-1-amino-1,3-dihydrospiro[indene-2,4′-piperidin]-1′-yl)-3-(2,2-dichloro-1-phenylcyclopropyl)-1,5-dihydro-4H-pyrazolo[3,4-d]pyrimidin-4-one]	> 0.06
N[C@@H]1c2ccccc2CC12CCN(c1nc3[nH]nc(C4(c5ccccc5)CCCC4)c3c(=O)[nH]1)CC2 [Example 97, (S)-6-(1-amino-1,3-dihydrospiro[indene-2,4′-piperidin]-1′-yl)-3-(1-phenylcyclopentyl)-1,5-dihydro-4H-pyrazolo[3,4-d]pyrimidin-4-one]	0.02 to 0.06
Cc1cccc(C2(c3n[nH]c4nc(N5CCC6(CC5)CO[C@@H](C)[C@H]6N)[nH]c(=O)c34)CC2)n1 [Example 319, 6-((3S,4S)-4-amino-3-methyl-2-oxa-8-azaspiro[4.5]decan-8-yl)-3-(1-(6-methylpyridin-2-yl)cyclopropyl)-1,5-dihydro-4H-pyrazolo[3,4-d]pyrimidin-4-one]	> 0.06
CNc1ncc2c(n1)CC(C)(C)C=C2c1n[nH]c2nc(N3CCC4(CC3)Cc3ccccc3[C@H]4N)[nH]c(=O)c12 [Example 149, (S)-6-(1-amino-1,3-dihydrospiro[indene-2,4′-piperidin]-1′-yl)-3-(7,7-dimethyl-2-(methylamino)-7,8-dihydroquinazolin-5-yl)-1,5-dihydro-4H-pyrazolo[3,4-d]pyrimidin-4-one]	≤ 0.02
N[C@@H]1c2ccccc2CC12CCN(c1nc3[nH]nc(C4=C(F)CCc5ncccc54)c3c(=O)[nH]1)CC2 [Example 186, (S)-6-(1-amino-1,3-dihydrospiro[indene-2,4′-piperidin]-1′-yl)-3-(6-fluoro-7,8-dihydroquinolin-5-yl)-1,5-dihydro-4H-pyrazolo[3,4-d]pyrimidin-4-one]	≤ 0.02
N[C@@H]1c2ccccc2CC12CCN(c1nc3[nH]nc(C4=CS(=O)(=O)Nc5ccccc54)c3c(=O)[nH]1)CC2 [Example 183, (S)-6-(1-amino-1,3-dihydrospiro[indene-2,4′-piperidin]-1′-yl)-3-(2,2-dioxido-1H-benzo[c][1,2]thiazin-4-yl)-1,5-dihydro-4H-pyrazolo[3,4-d]pyrimidin-4-one]	≤ 0.02
COc1ccc2c(c1)[C@@H](N)C1(CCN(c3nc4[nH]nc(C5(c6ccccc6)CC5)c4c(=O)[nH]3)CC1)C2 [Example 192, (S)-6-(1-amino-6-methoxy-1,3-dihydrospiro[indene-2,4′-piperidin]-1′-yl)-3-(1-phenylcyclopropyl)-1,5-dihydro-4H-pyrazolo[3,4-d]pyrimidin-4-one]	≤ 0.02

Next, values leading:

IC50 [µM]	Structure (SMILES)
≤ 0.02	N[C@@H]1c2ccccc2CC12CCN(c1nc3[nH]nc(C4(c5cccc6c5COC6)CC4)c3c(=O)[nH]1)CC2 [Example 83, (S)-6-(1-amino-1,3-dihydrospiro[indene-2,4′-piperidin]-1′-yl)-3-(1-(1,3-dihydroisobenzofuran-4-yl)cyclopropyl)-1,5-dihydro-4H-pyrazolo[3,4-d]pyrimidin-4-one]
≤ 0.02	N[C@@H]1c2ccccc2CC12CCN(c1nc3[nH]nc(C4(c5ccccn5)CC4)c3c(=O)[nH]1)CC2 [Example 23, (S)-6-(1-amino-1,3-dihydrospiro[indene-2,4′-piperidin]-1′-yl)-3-(1-(pyridin-2-yl)cyclopropyl)-1,5-dihydro-4H-pyrazolo[3,4-d]pyrimidin-4-one]
≤ 0.02	N[C@@H]1c2ccccc2CC12CCN(c1nc3[nH]nc(C4=C(F)CCc5nc(Cl)ccc54)c3c(=O)[nH]1)CC2 [Example 188, (S)-6-(1-amino-1,3-dihydrospiro[indene-2,4′-piperidin]-1′-yl)-3-(2-chloro-6-fluoro-7,8-dihydroquinolin-5-yl)-1,5-dihydro-4H-pyrazolo[3,4-d]pyrimidin-4-one]
≤ 0.02	CP(C)(=O)c1cccc(C2(c3n[nH]c4nc(N5CCC6(CC5)Cc5ccccc5[C@H]6N)[nH]c(=O)c34)CC2)c1 [Example 224, (S)-6-(1-amino-1,3-dihydrospiro[indene-2,4′-piperidin]-1′-yl)-3-(1-(3-(dimethylphosphoryl)phenyl)cyclo-propyl)-1,5-dihydro-4H-pyrazolo[3,4-d]pyrimidin-4-one]
≤ 0.02	N[C@@H]1c2ccccc2CC12CCN(c1nc3[nH]nc(C4(c5ccnnc5)CC4)c3c(=O)[nH]1)CC2 [Example 71, (S)-6-(1-amino-1,3-dihydrospiro[indene-2,4′-piperidin]-1′-yl)-3-(1-(pyridazin-4-yl)cyclopropyl)-1,5-dihydro-4H-pyrazolo[3,4-d]pyrimidin-4-one]
≤ 0.02	N[C@@H]1c2ccccc2CC12CCN(c1nc3[nH]nc(C4(c5ccccc5)CC4)c3c3nncn13)CC2 [Example 3]
≤ 0.02	N[C@@H]1c2ccccc2CC12CCN(c1nc3[nH]nc(C4(c5nn[nH]n5)CC4)c3c(=O)[nH]1)CC2 [Example 246, (S)-3-(1-(2H-tetrazol-5-yl)cyclopropyl)-6-(1-amino-1,3-dihydrospiro[indene-2,4′-piperidin]-1′-yl)-1,5-dihydro-4H-pyrazolo[3,4-d]pyrimidin-4-one]
≤ 0.02	Cn1ccc2c(C3(c4n[nH]c5nc(N6CCC7(CC6)Cc6ccccc6[C@H]7N)[nH]c(=O)c45)CC3)cccc21 [Example 81, (S)-6-(1-amino-1,3-dihydrospiro[indene-2,4′-piperidin]-1′-yl)-3-(1-(1-methyl-1H-indol-4-yl)cyclopropyl)-1,5-dihydro-4H-pyrazolo[3,4-d]pyrimidin-4-one]
≤ 0.02	N[C@@H]1c2ccccc2CC12CCN(c1nc3[nH]nc(C4(c5cocn5)CC4)c3c(=O)[nH]1)CC2 [Example 85, (S)-6-(1-amino-1,3-dihydrospiro[indene-2,4′-piperidin]-1′-yl)-3-(1-(oxazol-4-yl)cyclopropyl)-1,5-dihydro-4H-pyrazolo[3,4-d]pyrimidin-4-one]
≤ 0.02	N[C@@H]1c2ccccc2CC12CCN(c1nc3[nH]nc(C4=CCC5(CC5)c5ncccc54)c3c(=O)[nH]1)CC2 [Example 133, (S)-6-(1-amino-1,3-dihydrospiro[indene-2,4′-piperidin]-1′-yl)-3-(7′H-spiro[cyclopropane-1,8′-quinolin]-5′-yl)-1,5-dihydro-4H-pyrazolo[3,4-d]pyrimidin-4-one]
≤ 0.02	N[C@@H]1c2ccccc2CC12CCN(c1nc3[nH]nc(C4(c5ccccn5)CCC4)c3c(=O)[nH]1)CC2 [Example 93, (S)-6-(1-amino-1,3-dihydrospiro[indene-2,4′-piperidin]-1′-yl)-3-(1-(pyridin-2-yl)cyclobutyl)-1,5-dihydro-4H-pyrazolo[3,4-d]pyrimidin-4-one]
